Measurements as given in PubChem BioAssay AID2060611 (Molecular Pharmacology Branch, DTP, NCI, 2025).
pIC50: −log10 of the molar value. Several values for one entry are separate records, joined by “and”; a condition that tells them apart may be missing. Identical values can stand only once.

Tested on: 628569-122-R-J1-PDC complex spheroid viability
Test: Anticancer human tumor 628569-122-R-J1-PDC patient-derived head and neck squamous carcinoma cell line growth inhibition [CLK]
Conditions: for viability, T/C: stronger effect = lower value
Summary of the method: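 Multi-cell-type spheroids combined patient-derived tumor cells with HUVEC endothelial cells and human mesenchymal stem cells. Paired agents were dosed in half-log steps down from about clinical Cmax, or from 10 microM where Cmax was unknown.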

[1] = curve of first compound, second compound 0.0316 µM
[2] = curve of first compound, second compound 0.1 µM
[3] = curve of first compound, second compound 0.316 µM
[4] = curve of first compound, second compound 1 µM
[5] = curve of first compound, second compound 3.16 µM
[6] = curve of first compound, second compound 10 µM
[7] = second compound 0.0316 µM, first compound 0.00949 µM
[8] = second compound 0.0316 µM, first compound 0.03 µM
[9] = second compound 0.0316 µM, first compound 0.0949 µM
[10] = second compound 0.0316 µM, first compound 0.3 µM
[11] = second compound 0.1 µM, first compound 0.00949 µM
[12] = second compound 0.1 µM, first compound 0.03 µM
[13] = second compound 0.1 µM, first compound 0.0949 µM
[14] = second compound 0.1 µM, first compound 0.3 µM
[15] = second compound 0.316 µM, first compound 0.00949 µM
[16] = second compound 0.316 µM, first compound 0.03 µM
[17] = second compound 0.316 µM, first compound 0.0949 µM
[18] = second compound 0.316 µM, first compound 0.3 µM
[19] = second compound 1 µM, first compound 0.00949 µM
[20] = second compound 1 µM, first compound 0.03 µM
[21] = second compound 1 µM, first compound 0.0949 µM
[22] = second compound 1 µM, first compound 0.3 µM
[23] = second compound 3.16 µM, first compound 0.00949 µM
[24] = second compound 3.16 µM, first compound 0.03 µM
[25] = second compound 3.16 µM, first compound 0.0949 µM
[26] = second compound 3.16 µM, first compound 0.3 µM
[27] = second compound 10 µM, first compound 0.00949 µM
[28] = second compound 10 µM, first compound 0.03 µM
[29] = second compound 10 µM, first compound 0.0949 µM
[30] = second compound 10 µM, first compound 0.3 µM
[31] = second compound 0.0316 µM, first compound 0.0316 µM
[32] = second compound 0.0316 µM, first compound 0.1 µM
[33] = second compound 0.0316 µM, first compound 0.316 µM
[34] = second compound 0.0316 µM, first compound 1 µM
[35] = second compound 0.0316 µM, first compound 3.16 µM
[36] = second compound 0.0316 µM, first compound 10 µM
[37] = second compound 0.1 µM, first compound 0.0316 µM
[38] = second compound 0.1 µM, first compound 0.1 µM
[39] = second compound 0.1 µM, first compound 0.316 µM
[40] = second compound 0.1 µM, first compound 1 µM
[41] = second compound 0.1 µM, first compound 3.16 µM
[42] = second compound 0.1 µM, first compound 10 µM
[43] = second compound 0.316 µM, first compound 0.0316 µM
[44] = second compound 0.316 µM, first compound 0.1 µM
[45] = second compound 0.316 µM, first compound 0.316 µM
[46] = second compound 0.316 µM, first compound 1 µM
[47] = second compound 0.316 µM, first compound 3.16 µM
[48] = second compound 0.316 µM, first compound 10 µM
[49] = second compound 1 µM, first compound 0.0316 µM
[50] = second compound 1 µM, first compound 0.1 µM
[51] = second compound 1 µM, first compound 0.316 µM
[52] = second compound 1 µM, first compound 1 µM
[53] = second compound 1 µM, first compound 3.16 µM
[54] = second compound 1 µM, first compound 10 µM
[55] = second compound 3.16 µM, first compound 0.0316 µM
[56] = second compound 3.16 µM, first compound 0.1 µM
[57] = second compound 3.16 µM, first compound 0.316 µM
[58] = second compound 3.16 µM, first compound 1 µM
[59] = second compound 3.16 µM, first compound 3.16 µM
[60] = second compound 3.16 µM, first compound 10 µM
[61] = second compound 10 µM, first compound 0.0316 µM
[62] = second compound 10 µM, first compound 0.1 µM
[63] = second compound 10 µM, first compound 0.316 µM
[64] = second compound 10 µM, first compound 1 µM
[65] = second compound 10 µM, first compound 3.16 µM
[66] = second compound 10 µM, first compound 10 µM
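Further: spheroids exposed to agents for seven days before readout.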
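Wherever viability, T/C is given: 100% = DMSO vehicle control viability.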

SMILES: C=CC(=O)Nc1cc(Nc2nccc(-c3cn(C)c4ccccc34)n2)c(OC)cc1N(C)CCN(C)C + CN1CCN(c2cc(C(=O)Nc3cc4cc(-c5cnn(C)c5)ccc4cn3)ccn2)CC1
- pIC50 [1]: < 6.52
- pIC50 [2]: 6.99
- pIC50 [3]: > 9.02
- pIC50 [4]: > 9.02
- pIC50 [5]: > 9.02
- pIC50 [6]: > 9.02
- viability, T/C (second compound 0.0316 µM, first compound 0.000949 µM): 98.5%
- viability, T/C (second compound 0.0316 µM, first compound 0.003 µM): 112%
- viability, T/C [7]: 94.6%
- viability, T/C [8]: 89.1%
- viability, T/C [9]: 98.4%
- viability, T/C [10]: 59.1%
- viability, T/C (second compound 0.1 µM, first compound 0.000949 µM): 56.9%
- viability, T/C (second compound 0.1 µM, first compound 0.003 µM): 68.1%
- viability, T/C [11]: 70.1%
- viability, T/C [12]: 57%
- viability, T/C [13]: 52.9%
- viability, T/C [14]: 19.4%
- viability, T/C (second compound 0.316 µM, first compound 0.000949 µM): 35.5%
- viability, T/C (second compound 0.316 µM, first compound 0.003 µM): 44.2%
- viability, T/C [15]: 38.6%
- viability, T/C [16]: 39%
- viability, T/C [17]: 32.9%
- viability, T/C [18]: 14.3%
- viability, T/C (second compound 1 µM, first compound 0.000949 µM): 5.92%
- viability, T/C (second compound 1 µM, first compound 0.003 µM): 6.94%
- viability, T/C [19]: 10.9%
- viability, T/C [20]: 5.22%
- viability, T/C [21]: 7.08%
- viability, T/C [22]: 5.76%
- viability, T/C (second compound 3.16 µM, first compound 0.000949 µM): 5.99%
- viability, T/C (second compound 3.16 µM, first compound 0.003 µM): 7.83%
- viability, T/C [23]: 7.06%
- viability, T/C [24]: 9.16%
- viability, T/C [25]: 6.05%
- viability, T/C [26]: 4.8%
- viability, T/C (second compound 10 µM, first compound 0.000949 µM): 2.23%
- viability, T/C (second compound 10 µM, first compound 0.003 µM): 2.23%
- viability, T/C [27]: 4.31%
- viability, T/C [28]: 2.44%
- viability, T/C [29]: 2.36%
- viability, T/C [30]: 4.04%

SMILES: Nc1ccccc1NC(=O)c1ccc(CNC(=O)OCc2cccnc2)cc1
- viability, T/C (compound 0.0316 µM): 91% and 99.9%
- viability, T/C (compound 0.1 µM): 87.9% and 94.8%
- viability, T/C (compound 0.316 µM): 123% and 125%
- viability, T/C (compound 1 µM): 151% and 140%
- viability, T/C (compound 3.16 µM): 135% and 121%
- viability, T/C (compound 10 µM): 52.9% and 43.9%
- pIC50 (curve of compound): < 5.00 and 5.04

SMILES: CC1COCCN1c1cc(C2(S(C)(=N)=O)CC2)nc(-c2ccnc3[nH]ccc23)n1 (stereo not given) + CNC(=O)c1ccc(Nc2nc(OC3CCCC3)c3c(-c4ccc5nc(C)oc5c4)c[nH]c3n2)c(OC)c1
- pIC50 [1]: 6.03
- pIC50 [2]: 5.53
- pIC50 [3]: 5.86
- pIC50 [4]: > 7.50
- pIC50 [5]: > 7.50
- pIC50 [6]: > 7.50
- viability, T/C [31]: 103%
- viability, T/C [32]: 100%
- viability, T/C [33]: 67.5%
- viability, T/C [34]: 51.4%
- viability, T/C [35]: 45%
- viability, T/C [36]: 35.3%
- viability, T/C [37]: 66.2%
- viability, T/C [38]: 58.3%
- viability, T/C [39]: 56.1%
- viability, T/C [40]: 54.5%
- viability, T/C [41]: 54%
- viability, T/C [42]: 40%
- viability, T/C [43]: 45%
- viability, T/C [44]: 64.8%
- viability, T/C [45]: 50.9%
- viability, T/C [46]: 52.3%
- viability, T/C [47]: 44.7%
- viability, T/C [48]: 35.6%
- viability, T/C [49]: 45.1%
- viability, T/C [50]: 46.2%
- viability, T/C [51]: 40.4%
- viability, T/C [52]: 38.3%
- viability, T/C [53]: 41.8%
- viability, T/C [54]: 33.8%
- viability, T/C [55]: 44.1%
- viability, T/C [56]: 55.3%
- viability, T/C [57]: 47.2%
- viability, T/C [58]: 37.7%
- viability, T/C [59]: 36.7%
- viability, T/C [60]: 32%
- viability, T/C [61]: 44.2%
- viability, T/C [62]: 43.7%
- viability, T/C [63]: 39.7%
- viability, T/C [64]: 40.4%
- viability, T/C [65]: 39%
- viability, T/C [66]: 29.4%

SMILES: NC(=O)C(=Cn1cnc(-c2cc(C(F)(F)F)cc(C(F)(F)F)c2)n1)c1cncnc1 + CN1CCN(c2cc(C(=O)Nc3cc4cc(-c5cnn(C)c5)ccc4cn3)ccn2)CC1
- pIC50 [1]: 6.17
- pIC50 [2]: 7.55
- pIC50 [3]: > 8.02
- pIC50 [4]: > 8.02
- pIC50 [5]: > 8.02
- pIC50 [6]: > 8.02
- viability, T/C [7]: 79.3%
- viability, T/C [8]: 67.5%
- viability, T/C [9]: 76%
- viability, T/C [10]: 76.1%
- viability, T/C (second compound 0.0316 µM, first compound 0.949 µM): 38.1%
- viability, T/C (second compound 0.0316 µM, first compound 3 µM): 41.8%
- viability, T/C [11]: 47.6%
- viability, T/C [12]: 53%
- viability, T/C [13]: 47.4%
- viability, T/C [14]: 35%
- viability, T/C (second compound 0.1 µM, first compound 0.949 µM): 22.3%
- viability, T/C (second compound 0.1 µM, first compound 3 µM): 13.7%
- viability, T/C [15]: 31.6%
- viability, T/C [16]: 22.2%
- viability, T/C [17]: 8.26%
- viability, T/C [18]: 6.76%
- viability, T/C (second compound 0.316 µM, first compound 0.949 µM): 4.81%
- viability, T/C (second compound 0.316 µM, first compound 3 µM): 2.61%
- viability, T/C [19]: 8.6%
- viability, T/C [20]: 7.83%
- viability, T/C [21]: 5.77%
- viability, T/C [22]: 4.21%
- viability, T/C (second compound 1 µM, first compound 0.949 µM): 5.37%
- viability, T/C (second compound 1 µM, first compound 3 µM): 1.7%
- viability, T/C [23]: 6.02%
- viability, T/C [24]: 7.42%
- viability, T/C [25]: 10.8%
- viability, T/C [26]: 16.6%
- viability, T/C (second compound 3.16 µM, first compound 0.949 µM): 4.54%
- viability, T/C (second compound 3.16 µM, first compound 3 µM): 1.65%
- viability, T/C [27]: 4.54%
- viability, T/C [28]: 4.5%
- viability, T/C [29]: 6.08%
- viability, T/C [30]: 5.71%
- viability, T/C (second compound 10 µM, first compound 0.949 µM): 1.68%
- viability, T/C (second compound 10 µM, first compound 3 µM): 1.21%

SMILES: CC(Nc1ccc2c(c1)OCCn1cc(N3C(=O)OCC3C(F)F)nc1-2)C(N)=O (stereo not given) + CN1CCN(c2cc(C(=O)Nc3cc4cc(-c5cnn(C)c5)ccc4cn3)ccn2)CC1
- pIC50 [1]: 6.36
- pIC50 [2]: 7.49
- pIC50 [3]: > 7.50
- pIC50 [4]: > 7.50
- pIC50 [5]: > 7.50
- pIC50 [6]: > 7.50
- viability, T/C [31]: 76.2%
- viability, T/C [32]: 71.2%
- viability, T/C [33]: 50.8%
- viability, T/C [34]: 41%
- viability, T/C [35]: 28.9%
- viability, T/C [36]: 23.2%
- viability, T/C [37]: 51.8%
- viability, T/C [38]: 44%
- viability, T/C [39]: 36.4%
- viability, T/C [40]: 41.6%
- viability, T/C [41]: 23.2%
- viability, T/C [42]: 17.8%
- viability, T/C [43]: 26.9%
- viability, T/C [44]: 20.5%
- viability, T/C [45]: 13.6%
- viability, T/C [46]: 13.5%
- viability, T/C [47]: 8.04%
- viability, T/C [48]: 5.9%
- viability, T/C [49]: 7.59%
- viability, T/C [50]: 8.7%
- viability, T/C [51]: 6.98%
- viability, T/C [52]: 8.35%
- viability, T/C [53]: 6.35%
- viability, T/C [54]: 5.58%
- viability, T/C [55]: 7.77%
- viability, T/C [56]: 7.38%
- viability, T/C [57]: 6.16%
- viability, T/C [58]: 6.78%
- viability, T/C [59]: 7.18%
- viability, T/C [60]: 6.1%
- viability, T/C [61]: 6.06%
- viability, T/C [62]: 4.09%
- viability, T/C [63]: 2.84%
- viability, T/C [64]: 6.87%
- viability, T/C [65]: 3.27%
- viability, T/C [66]: 2.51%
